Assay results published in paper PMC11790914, “Chemogenomics for steroid hormone receptors (NR3)” (Communications Chemistry, 2025).
Values joined by “and” are separate entries in the source; they are usually repeats but may differ in a detail not shown here. Equal entries are not always repeated.

Assays:
HEK293T cells [1] = assay: Cytotoxicity: metabolic activity (WST-8 / CCK-8 assay); conditions: HEK293T, 24 h, WST-8, normalized to 0.1% DMSO, single replicates
Description: Cells were incubated with the test compounds at the indicated concentrations solubilized with 0.1% DMSO for 24 h. Growth-rate was determined based on the change in confluence over 24 h normalized to the change in confluence of cells treated with the 0.1% DMSO control (n = 10). Metabolic activity was determined with a water-soluble tetrazolium-8 (WST-8) assay (n = 8) after 24 h treatment. Apoptotic cells were detected with a fluorogenic DNA dye coupled to the caspase-3/7 recognition sequence (DEVD) after 24 h treatment and the apoptotic cell count was normalized to 0.1% DMSO treated cells (n = 6).
HEK293T cells (German Collection of Microorganisms and Cell Culture GmbH, DSMZ; #ACC305) were cultured in DMEM high glucose, supplemented with 10% fetal calf serum (FCS), sodium pyruvate (1 mM), penicillin (100 µ/mL) and streptomycin (100 µg/mL) at 37 °C and 5% (v/v) CO2, and seeded in pre-coated (10 µg/mL collagen G solution (Merck KgaA; #L7213) for 30 min at 37 °C) 96-well plates (2 × 10^5 cells per well). After 24 h, the cells were treated with the respective NR3 CG compound candidate at the recommended concentration, bexarotene (100 µM) or doxorubicin (30 µM) as positive controls in DMEM high glucose supplemented with 0.1% FCS, penicillin (100 µ/mL), streptomycin (100 µg/mL) and 0.1% DMSO, or 0.1% DMSO alone as an untreated control. Each sample was prepared in at least four biologically independent replicates. […] Thereafter, the medium was aspirated and the cells were incubated for 3 h with 90 µL DMEM high glucose supplemented with 0.2% FCS, penicillin (100 µ/mL) and streptomycin (100 µg/mL) and additionally containing 10 µL Cell Counting Kit 8 solution (CCK-8; MedChemExpress, Monmouth Junction, New York, USA; #HY-K0301), and absorbance was measured at 1 h, 2 h and 3 h of incubation at 450 nm on a Tecan Spark Cyto to assess metabolic activity of the cells. Before drug administration, after the first medium exchange, 24 h after drug administration, and after fluorescence imaging cell confluence was assessed using the Tecan Spark Cyto, to account for changes in cell confluence due to drug administration and cell handling. Compound effects on cell confluence, apoptosis, metabolic activity and necrosis were normalized to the vehicle control of each biological replicate individually.

MAPK1 = target: T1, MAPK1 (Homo sapiens, UniProt P28482); assay: Liability panel screening by DSF: MAPK1; type: binding; conditions: DSF, 20 µM, n=2; read-out: Mean ΔTM MAPK1
T1 construct: made in house
T1 sequence (P28482 whole entry, species assumed): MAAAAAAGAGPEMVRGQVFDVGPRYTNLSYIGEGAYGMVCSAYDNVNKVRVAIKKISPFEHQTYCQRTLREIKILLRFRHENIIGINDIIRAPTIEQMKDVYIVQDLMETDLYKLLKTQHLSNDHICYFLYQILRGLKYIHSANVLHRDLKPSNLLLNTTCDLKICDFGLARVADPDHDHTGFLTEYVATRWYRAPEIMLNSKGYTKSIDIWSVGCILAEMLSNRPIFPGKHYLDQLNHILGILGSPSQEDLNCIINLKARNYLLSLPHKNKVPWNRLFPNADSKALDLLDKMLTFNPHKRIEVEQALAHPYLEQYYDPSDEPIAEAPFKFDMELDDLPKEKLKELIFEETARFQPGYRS
Outline: (§1)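 Recombinant protein at 2 µM in 10 mM HEPES pH 7.5 with 500 mM NaCl was mixed with SYPRO Orange (1:1000) and heated at 3 °C/min up to 85 °C. Tm was taken as the Boltzmann-fit inflection point. Shifts are ∆Tm in K from technical duplicates.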

AURKA = target: T2, AURKA (Homo sapiens, UniProt O14965); assay: Liability panel screening by DSF: AURKA; type: binding; conditions: DSF, 20 µM, n=2; read-out: Mean ΔTM AURKA
T2 construct: made in house
T2 sequence (O14965 1-403): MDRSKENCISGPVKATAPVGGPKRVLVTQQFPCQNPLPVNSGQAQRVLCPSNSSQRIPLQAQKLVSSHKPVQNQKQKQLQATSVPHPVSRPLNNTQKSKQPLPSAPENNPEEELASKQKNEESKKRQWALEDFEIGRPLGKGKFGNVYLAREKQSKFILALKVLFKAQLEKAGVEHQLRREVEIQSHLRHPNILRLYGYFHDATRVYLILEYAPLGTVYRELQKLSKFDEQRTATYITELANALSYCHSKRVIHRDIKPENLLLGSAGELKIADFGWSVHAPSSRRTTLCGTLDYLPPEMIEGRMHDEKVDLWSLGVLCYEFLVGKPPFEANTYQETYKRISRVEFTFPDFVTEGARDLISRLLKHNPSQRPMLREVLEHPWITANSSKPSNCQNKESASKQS
Outline: as §1

CDK2 = target: T3, CDK2 (Homo sapiens, UniProt P24941); assay: Liability panel screening by DSF: CDK2; type: binding; conditions: DSF, 20 µM, n=2; read-out: Mean ΔTM CDK2
T3 construct: made in house
Outline: as §1

TRIM24 = target: T4, TRIM24 (Homo sapiens, UniProt O15164); assay: Liability panel screening by DSF: TRIM24; type: binding; conditions: DSF, 20 µM, n=2; read-out: Mean ΔTM TRIM24
T4 construct: This panel comprised ten highly ligandable kinases and bromodomains; made in house
T4 sequence (O15164 899-1004 limits assumed): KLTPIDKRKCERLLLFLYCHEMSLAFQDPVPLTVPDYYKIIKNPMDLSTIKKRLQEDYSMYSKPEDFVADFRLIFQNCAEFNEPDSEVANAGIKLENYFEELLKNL
Outline: as §1

BRD4 = target: T5, BRD4 (Homo sapiens, UniProt O60885); assay: Liability panel screening by DSF: BRD4; type: binding; conditions: DSF, 20 µM, n=2; read-out: Mean ΔTM BRD4
T5 construct: This panel comprised ten highly ligandable kinases and bromodomains; made in house
Outline: as §1

[2] = tested on: NF-κB activity in HEK293 NF-κB reporter cells; assay: NF-kB activity assay (GFP reporter, ionomycin/PMA); type: cell-based; conditions: n=3
Outline: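 HEK293 NF-κB GFP reporter cells given compound in 0.1% DMSO for 4 h, then stimulated with ionomycin 100 ng/mL plus PMA 10 ng/mL. Imaged every 90 min over 24 h; GFP-positive cell count normalized to confluence, three independent biological replicates.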

FGFR3 = target: T6, FGFR3 (Homo sapiens, UniProt P22607); assay: Liability panel screening by DSF: FGFR3; type: binding; conditions: DSF, 20 µM, n=2; read-out: Mean ΔTM FGFR3
T6 construct: made in house
T6 sequence (P22607 23-806, species assumed): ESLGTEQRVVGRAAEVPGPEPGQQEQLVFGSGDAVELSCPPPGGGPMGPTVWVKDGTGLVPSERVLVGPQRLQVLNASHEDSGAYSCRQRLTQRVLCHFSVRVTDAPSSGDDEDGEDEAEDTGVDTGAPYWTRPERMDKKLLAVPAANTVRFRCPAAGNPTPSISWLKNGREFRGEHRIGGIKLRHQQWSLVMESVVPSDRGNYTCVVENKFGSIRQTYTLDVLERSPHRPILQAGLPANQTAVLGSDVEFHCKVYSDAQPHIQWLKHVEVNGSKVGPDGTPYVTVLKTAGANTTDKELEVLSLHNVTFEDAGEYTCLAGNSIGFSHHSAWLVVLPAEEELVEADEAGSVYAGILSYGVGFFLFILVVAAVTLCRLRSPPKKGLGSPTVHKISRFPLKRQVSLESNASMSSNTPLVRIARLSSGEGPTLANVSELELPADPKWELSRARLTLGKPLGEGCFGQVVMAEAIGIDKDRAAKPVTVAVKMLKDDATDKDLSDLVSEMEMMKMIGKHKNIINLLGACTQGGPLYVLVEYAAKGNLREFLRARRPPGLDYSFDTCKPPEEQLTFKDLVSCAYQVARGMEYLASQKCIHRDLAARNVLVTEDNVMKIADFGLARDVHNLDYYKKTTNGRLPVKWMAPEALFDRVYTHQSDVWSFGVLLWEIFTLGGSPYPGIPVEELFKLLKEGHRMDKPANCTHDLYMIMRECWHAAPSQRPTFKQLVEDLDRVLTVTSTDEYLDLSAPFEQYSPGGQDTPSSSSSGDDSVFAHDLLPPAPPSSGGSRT
Outline: as §1

ABL1 = target: T7, ABL1 (Homo sapiens, UniProt P00519); assay: Liability panel screening by DSF: ABL1; type: binding; conditions: DSF, 20 µM, n=2; read-out: Mean ΔTM ABL1
T7 construct: made in house
T7 sequence (P00519 whole entry, species assumed): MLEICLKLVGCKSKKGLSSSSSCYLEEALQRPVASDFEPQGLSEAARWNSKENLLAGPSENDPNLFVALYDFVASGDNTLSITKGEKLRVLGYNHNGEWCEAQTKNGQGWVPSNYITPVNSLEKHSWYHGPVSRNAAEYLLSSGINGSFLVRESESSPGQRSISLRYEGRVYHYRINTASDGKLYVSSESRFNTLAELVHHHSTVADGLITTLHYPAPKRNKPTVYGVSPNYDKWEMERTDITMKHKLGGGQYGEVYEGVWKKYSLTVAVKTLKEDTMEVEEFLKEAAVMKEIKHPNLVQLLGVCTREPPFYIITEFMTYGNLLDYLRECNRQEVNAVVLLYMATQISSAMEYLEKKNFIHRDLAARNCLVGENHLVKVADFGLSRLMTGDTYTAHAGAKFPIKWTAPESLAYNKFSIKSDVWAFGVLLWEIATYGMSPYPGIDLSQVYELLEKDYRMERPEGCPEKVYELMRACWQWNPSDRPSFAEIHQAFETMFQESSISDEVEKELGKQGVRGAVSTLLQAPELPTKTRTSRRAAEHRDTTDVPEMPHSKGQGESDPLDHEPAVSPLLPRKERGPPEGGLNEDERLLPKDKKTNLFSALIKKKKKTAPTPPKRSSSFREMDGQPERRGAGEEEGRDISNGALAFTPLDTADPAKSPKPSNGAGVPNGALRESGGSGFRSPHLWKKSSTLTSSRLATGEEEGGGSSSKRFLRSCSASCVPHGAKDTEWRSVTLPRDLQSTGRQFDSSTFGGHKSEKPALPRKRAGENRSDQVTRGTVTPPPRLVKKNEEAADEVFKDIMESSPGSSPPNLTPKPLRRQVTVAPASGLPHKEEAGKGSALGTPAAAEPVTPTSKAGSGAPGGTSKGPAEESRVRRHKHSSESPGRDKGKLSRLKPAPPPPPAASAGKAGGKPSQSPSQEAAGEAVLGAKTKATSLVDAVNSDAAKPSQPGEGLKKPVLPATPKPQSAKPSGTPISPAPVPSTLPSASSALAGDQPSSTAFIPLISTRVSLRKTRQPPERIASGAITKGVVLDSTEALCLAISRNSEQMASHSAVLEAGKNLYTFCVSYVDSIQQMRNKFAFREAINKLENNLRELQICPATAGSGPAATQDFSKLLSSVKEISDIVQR
Outline: as §1

[3] = tested on: ATF6 activity in Hela ATF6 reporter cells; assay: Endoplasmic reticulum stress assay (ATF6 Renilla luciferase reporter, tunicamycin); type: cell-based
Outline: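 HeLa ATF6 Renilla reporter cells were pretreated 4 h with compounds in 0.1% DMSO, then stimulated with tunicamycin (100 ng/mL) for 18 h. Renilla luminescence (DualGlo) was normalized to 0.1% DMSO control; five independent experiments.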

NR3B3 (ERRγ) = conditions: ref Supplementary Table 1, cited from earlier work
BRPF1 = target: T8, BRPF1 (Homo sapiens, UniProt P55201); assay: Liability panel screening by DSF: BRPF1; type: binding; conditions: DSF, 20 µM, n=2; read-out: Mean ΔTM BRPF1
T8 construct: This panel comprised ten highly ligandable kinases and bromodomains; made in house
T8 sequence (P55201 628-732 limits assumed): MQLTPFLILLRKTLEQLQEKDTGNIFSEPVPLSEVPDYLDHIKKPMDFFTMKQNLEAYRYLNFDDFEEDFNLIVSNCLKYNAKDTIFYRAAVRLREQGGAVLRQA
Outline: as §1

HEK293T cells [4] = assay: Cytotoxicity: necrosis induction (red fluorescent dye for permeable plasma membranes); type: cell-based; conditions: 24 h, necrotic cell count normalized to 0.1% DMSO, single replicates;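 note: compounds applied in DMEM high glucose with 0.1% FCS and 0.1% DMSO, necrotic HEK293T cells counted by red staining of cells whose plasma membranes had become permeable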
HEK293T cells [5] = assay: Cytotoxicity: apoptosis induction (caspase-3/7 DEVD fluorogenic DNA dye); conditions: HEK293T, 24 h, apoptotic cell count normalized to 0.1% DMSO, single replicates
HEK293T cells [6] = assay: Cytotoxicity: growth-rate (change in confluence over 24 h); conditions: normalized to 0.1% DMSO control, single replicates (n=1...)
GSK3B = target: T9, GSK3B (Homo sapiens, UniProt P49841); assay: Liability panel screening by DSF: GSK3B; type: binding; conditions: DSF, 20 µM, n=2; read-out: Mean ΔTM GSK3B
T9 construct: made in house
T9 sequence (P49841 whole entry, species assumed): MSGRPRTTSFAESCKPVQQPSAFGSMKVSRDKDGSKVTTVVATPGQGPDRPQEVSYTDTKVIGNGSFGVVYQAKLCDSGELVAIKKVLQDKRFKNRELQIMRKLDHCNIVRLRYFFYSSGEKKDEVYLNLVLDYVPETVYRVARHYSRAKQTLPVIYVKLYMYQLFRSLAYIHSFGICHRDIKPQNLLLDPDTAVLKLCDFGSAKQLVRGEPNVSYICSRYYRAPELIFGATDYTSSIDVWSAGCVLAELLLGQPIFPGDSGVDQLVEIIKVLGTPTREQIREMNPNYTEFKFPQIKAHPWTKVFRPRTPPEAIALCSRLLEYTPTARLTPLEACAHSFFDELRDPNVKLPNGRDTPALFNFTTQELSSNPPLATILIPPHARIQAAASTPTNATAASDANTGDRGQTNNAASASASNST

NR3B2 (ERRβ) = conditions: ref Supplementary Table 1; cited from earlier work
CSNK1D = target: T10, CSNK1D (Homo sapiens, UniProt P48730); assay: Liability panel screening by DSF: CSNK1D; type: binding; conditions: DSF, 20 µM, n=2; read-out: Mean ΔTM CSNK1D
T10 construct: made in house
T10 sequence (P48730 whole entry, species assumed): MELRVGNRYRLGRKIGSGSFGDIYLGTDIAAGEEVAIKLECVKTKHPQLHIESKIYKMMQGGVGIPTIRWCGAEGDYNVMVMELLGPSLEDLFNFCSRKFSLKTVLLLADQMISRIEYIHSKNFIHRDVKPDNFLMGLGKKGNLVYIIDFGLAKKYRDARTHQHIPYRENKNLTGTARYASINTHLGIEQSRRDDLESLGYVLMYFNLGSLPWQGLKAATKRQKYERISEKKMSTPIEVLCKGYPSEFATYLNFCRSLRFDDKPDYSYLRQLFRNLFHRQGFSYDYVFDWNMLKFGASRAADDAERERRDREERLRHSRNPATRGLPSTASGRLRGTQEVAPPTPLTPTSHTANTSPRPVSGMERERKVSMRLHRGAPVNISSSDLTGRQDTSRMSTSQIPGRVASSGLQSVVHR
Outline: as §1

Gal4-VP16 = type: cell-based; conditions: 3 µM; vs. DMSO ctrl; single replicates n=1-3

## CC(C)(c1ccc(O)cc1)c1ccc(O)cc1 [Bisphenol A]
HEK293T cells [1]; 0.3 µM
  Metabolic activity [MA]: 1.05 (2×) and 0.84 and 0.94 and 1.07 and 0.99 (2×) and 1.13
MAPK1
  ΔTm at 20 µM: 0.26 °C
AURKA
  ΔTm at 20 µM: 0.19 °C
CDK2
  ΔTm at 20 µM: 1.16 °C
TRIM24
  ΔTm at 20 µM: -1.35 °C
BRD4
  ΔTm at 20 µM: -2.63 °C
[2]; 0.3 µM, 1,5 h
  Mean NFκB response: 2380.54 GFP+-cells/confluence ∙ 1000
[2]; 0.3 µM, 4,5 h
  Mean NFκB response: 2758.19 GFP+-cells/confluence ∙ 1000
[2]; 0.3 µM, 7,5 h
  Mean NFκB response: 7233.84 GFP+-cells/confluence ∙ 1000
[2]; 0.3 µM, 10,5 h
  Mean NFκB response: 19121.46 GFP+-cells/confluence ∙ 1000
[2]; 0.3 µM, 13,5 h
  Mean NFκB response: 28203.30 GFP+-cells/confluence ∙ 1000
[2]; 0.3 µM, 16,6 h
  Mean NFκB response: 34624.31 GFP+-cells/confluence ∙ 1000
[2]; 0.3 µM, 19,5 h
  Mean NFκB response: 39396.74 GFP+-cells/confluence ∙ 1000
[2]; 0.3 µM, 22,5 h
  Mean NFκB response: 42069.32 GFP+-cells/confluence ∙ 1000
[2]; 0.3 µM, 3 h
  Mean NFκB response: 2422.37 GFP+-cells/confluence ∙ 1000
[2]; 0.3 µM, 6 h
  Mean NFκB response: 3882.85 GFP+-cells/confluence ∙ 1000
[2]; 0.3 µM, 9 h
  Mean NFκB response: 13703.44 GFP+-cells/confluence ∙ 1000
[2]; 0.3 µM, 12 h
  Mean NFκB response: 24104.26 GFP+-cells/confluence ∙ 1000
[2]; 0.3 µM, 15 h
  Mean NFκB response: 31750.86 GFP+-cells/confluence ∙ 1000
[2]; 0.3 µM, 18 h
  Mean NFκB response: 37025.53 GFP+-cells/confluence ∙ 1000
[2]; 0.3 µM, 21 h
  Mean NFκB response: 40865.92 GFP+-cells/confluence ∙ 1000
[2]; 0.3 µM, 24 h
  Mean NFκB response: 43618.62 GFP+-cells/confluence ∙ 1000
FGFR3
  ΔTm at 20 µM: 0.44 °C
ABL1
  ΔTm at 20 µM: 0.26 °C
[3]; Homo sapiens, HeLa, 0.3 µM, single replicates n=1 to n=5, read-out: ER stress [rel. ATF6 activity]
  activity at 0.3 µM: 96%
NR3B3 (ERRγ); (lit.), read-out: Potency [nM] IC50, NR3B3 (ERRγ)
  IC50: 13 ± 2 nM
BRPF1
  ΔTm at 20 µM: -2.21 °C
HEK293T cells [4]; 0.3 µM
  Necrosis induction [NI]: 0.87 and 0.82 and 0.90 and 1.20
HEK293T cells [5]; 0.3 µM
  Apoptosis induction [AI]: 0.73 and 0.80 and 0.66 and 1.02 and 0.52 and 0.91
HEK293T cells [6]; 0.3 µM
  Growth rate [GR]: 0.54 and 1.52 and 0.90 (2×) and 1.13 and 0.87 and 0.95 and 0.88 and 2.38 and 0.44

## CC(C)c1ccc(/C=N/NC(=O)c2ccc(O)cc2)cc1 [GSK4716]
HEK293T cells [1]; 3 µM
  Metabolic activity [MA]: 1.04 and 0.92 and 0.86 and 0.83 and 0.84 (2×) and 0.81 and 0.76
MAPK1
  ΔTm at 20 µM: 0.09 °C
GSK3B
  ΔTm at 20 µM: -3.45 °C
AURKA
  ΔTm at 20 µM: 0.71 °C
CDK2
  ΔTm at 20 µM: 1.04 °C
TRIM24
  ΔTm at 20 µM: 0.64 °C
NR3B2 (ERRβ)
  rel. activity from literature, NR3B2 (ERRβ): fold activation: 10 fold
CSNK1D
  ΔTm at 20 µM: -0.73 °C
BRD4
  ΔTm at 20 µM: -0.72 °C
[2]; 3 µM, 1,5 h
  Mean NFκB response: 3350.67 GFP+-cells/confluence ∙ 1000
[2]; 3 µM, 4,5 h
  Mean NFκB response: 4011.96 GFP+-cells/confluence ∙ 1000
[2]; 3 µM, 7,5 h
  Mean NFκB response: 8902.65 GFP+-cells/confluence ∙ 1000
[2]; 3 µM, 10,5 h
  Mean NFκB response: 19241.33 GFP+-cells/confluence ∙ 1000
[2]; 3 µM, 13,5 h
  Mean NFκB response: 27824.67 GFP+-cells/confluence ∙ 1000
[2]; 3 µM, 16,6 h
  Mean NFκB response: 34184.33 GFP+-cells/confluence ∙ 1000
[2]; 3 µM, 19,5 h
  Mean NFκB response: 38593.33 GFP+-cells/confluence ∙ 1000
[2]; 3 µM, 22,5 h
  Mean NFκB response: 41930.00 GFP+-cells/confluence ∙ 1000
[2]; 3 µM, 3 h
  Mean NFκB response: 3264.72 GFP+-cells/confluence ∙ 1000
[2]; 3 µM, 6 h
  Mean NFκB response: 5255.77 GFP+-cells/confluence ∙ 1000
[2]; 3 µM, 9 h
  Mean NFκB response: 14135.33 GFP+-cells/confluence ∙ 1000
[2]; 3 µM, 12 h
  Mean NFκB response: 23629.33 GFP+-cells/confluence ∙ 1000
[2]; 3 µM, 15 h
  Mean NFκB response: 31599.67 GFP+-cells/confluence ∙ 1000
[2]; 3 µM, 18 h
  Mean NFκB response: 36410.00 GFP+-cells/confluence ∙ 1000
[2]; 3 µM, 21 h
  Mean NFκB response: 40543.33 GFP+-cells/confluence ∙ 1000
[2]; 3 µM, 24 h
  Mean NFκB response: 43546.67 GFP+-cells/confluence ∙ 1000
FGFR3
  ΔTm at 20 µM: 0.7 °C
ABL1
  ΔTm at 20 µM: 1.07 °C
[3]; Hela ATF6 reporter cells, tunicamycin 100 ng/mL, 18 h, compounds at recommended concentrations, n = 5
  ATF6 activity (tunicamycin-induced endoplasmic reticulum stress): strongly ameliorated the tunicamycin-induced endoplasmic reticulum stress
[3]; Homo sapiens, HeLa, 3 µM, single replicates n=1 to n=5, read-out: ER stress [rel. ATF6 activity]
  activity at 3 µM: 15%
Gal4-VP16
  VP16 control [fold reporter gene activity]: 1.46 fold reporter gene activity and 1.30 fold reporter gene activity and 1.47 fold reporter gene activity
NR3B3 (ERRγ)
  rel. activity from literature, NR3B3 (ERRγ): fold activation: 6 fold
BRPF1
  ΔTm at 20 µM: 0.6 °C
HEK293T cells [4]; 3 µM
  Necrosis induction [NI]: 0.73 and 0.72 and 1.06 and 0.88
HEK293T cells [5]; 3 µM
  Apoptosis induction [AI]: 1.16 and 0.91 and 0.96 and 0.89 and 0.51 and 0.66
HEK293T cells [6]; 3 µM
  Growth rate [GR]: 0.56 and 4.17 and 0.59 and 0.95 and 0.79 and 0.39 and 0.32 and 1.23 and 0.96 and 33.22
